From paper PMC6690934, “High-density immobilization of a ginsenoside-transforming β-glucosidase for enhanced food-grade production of minor ginsenosides” (Applied Microbiology and Biotechnology, 2019)

Molecular target: T1, MT619 (Microbacterium testaceum, UniProt E8N6P7)
T1 construct: gene MTES_2447; codon-optimized synthetic gene (MK575514); E. coli BL21; purified by Ni and DEAE columns
T1 sequence (E8N6P7 1-619): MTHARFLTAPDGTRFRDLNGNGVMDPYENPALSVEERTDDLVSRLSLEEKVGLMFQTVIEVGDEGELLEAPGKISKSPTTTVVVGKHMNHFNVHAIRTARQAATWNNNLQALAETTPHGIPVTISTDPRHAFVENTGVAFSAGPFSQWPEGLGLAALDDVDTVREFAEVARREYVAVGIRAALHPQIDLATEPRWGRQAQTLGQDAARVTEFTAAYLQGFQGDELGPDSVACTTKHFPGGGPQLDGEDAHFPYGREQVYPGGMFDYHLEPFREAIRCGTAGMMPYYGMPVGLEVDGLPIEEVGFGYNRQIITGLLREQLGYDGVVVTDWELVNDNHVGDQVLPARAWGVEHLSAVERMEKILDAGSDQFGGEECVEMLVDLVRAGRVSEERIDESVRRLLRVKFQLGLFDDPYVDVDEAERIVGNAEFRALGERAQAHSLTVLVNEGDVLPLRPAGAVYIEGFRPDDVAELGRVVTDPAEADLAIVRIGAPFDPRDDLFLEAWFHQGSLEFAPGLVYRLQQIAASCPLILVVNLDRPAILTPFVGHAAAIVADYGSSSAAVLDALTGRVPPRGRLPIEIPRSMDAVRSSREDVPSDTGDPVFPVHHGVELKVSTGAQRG
Assay: TLC of hydrolysis products
Type: biochemical
Conditions: pH 7.0, 37 °C, 2.0 mg/mL substrate, 0.1 mg/mL enzyme

CC(C)=CCC[C@](C)(O[C@@H]1O[C@H](CO[C@@H]2O[C@H](CO)[C@@H](O)[C@H](O)[C@H]2O)[C@@H](O)[C@H](O)[C@H]1O)[C@H]1CC[C@]2(C)[C@@H]1[C@H](O)C[C@@H]1[C@@]3(C)CC[C@H](O[C@@H]4O[C@H](CO)[C@@H](O)[C@H](O)[C@H]4O[C@@H]4O[C@H](CO)[C@@H](O)[C@H](O)[C@H]4O)C(C)(C)[C@@H]3CC[C@]12C [Rb1]
TLC of hydrolysis products: MT619 could clearly transform four major ginsenosides (Re, Rg1, Rb1, and Rd)
